Tests used:
[1] = parameters: method as in PMID 36315933; conditions: previously reported values; cited from earlier work
[2] = target: T1, KCa3.1 channel in A549-3R cells (Homo sapiens, UniProt O15554); parameters: method as in PMID 36315933; conditions: previously reported; cited from earlier work
T1 construct: the non-small cell lung cancer cell line A549-3R with a high expression of the KCa3.1 channel was employed; endogenous in cells; host or cells: A549-3R cells

[3] = logP by HPLC retention time correlation; type: physicochemical; conditions: standardized reversed phase HPLC system
Protocol: The logP values were recorded using HPLC analysis. Thus, the retention time of the test compound in a standardized reversed phase HPLC system is correlated with the retention times of compounds with known logP values.
In addition to the logD7.4 values, the logP values of the fluorescent probes were recorded by HPLC, i.e., after calibration of the method, the retention times were correlated with the logP values or the compounds [33]. […] Fluorescein-labeled ligands 21a and 21b are considerably more polar than the corresponding bodipy-labeled senicapoc derivatives.

[4] = target: T1, KCa3.1 channel in A549-3R cells; assay: Staining of fixed A549-3R tumor cells (Protocol 1), fluorescence microscopy; type: cell-based; conditions: 10 µM in PBS, 10 min, 4 °C, Protocol 1
Protocol: For the fixation of the cells, the DMEM medium was removed from the glass bottom dish after incubation for 24 h, and the cells were washed with 1 mL of PBS. Subsequently, 1 mL of 4% paraformaldehyde in PBS solution was added to the glass bottom dish and the mixture was incubated for 30 min at room temperature. Thereafter, the cells were washed five times with 1 mL of PBS and used for the cell staining experiments.
After fixation of the cells (Section 2.10.2), 300 µL of the 10 µM staining solution was added to the glass bottom dish. The cells were incubated for 10 min at 4 °C in a dark chamber. After incubation, the cells were washed five times with 1 mL of PBS and used subsequently for fluorescence microscopy.
An Axiovert 200 inverted microscope (Carl Zeiss AG, Jena, Germany) with a ×100 oil immersion objective and a digital camera (SPOT RT SE from Diagnostic Instruments Inc., Livingston, UK) were used. The camera was controlled by MetaVue software (version 6.3r6, Visitron, Germany). Two different filter sets were employed, the FITC filter set (Carl Zeiss Filter Set 10 bandwidth excitation filter 450–490, color splitter 510, bandpass filter 515–565) and the TRITC filter set (Carl Zeiss Filter Set 15, bandpass excitation filter 546/12, dichroic mirror 580, emission filter Long Pass 590).
Using the free imaging software ImageJ (1.53f51, NIH, USA), squares with an edge length of 50 × 50 pixels, corresponding to an area of 9 µm^2, were randomly placed in a cell and signals with Full Width at Half Maximum (FWHM) of ≤5 pixels (~300 nm) were counted as a KCa3.1 channel. For the evaluation, 7 squares were analyzed.
For the staining experiments, the non-small cell lung cancer cell line A549-3R with a high expression of the KCa3.1 channel was employed. An optimized staining protocol (Protocol 1) described previously was followed to analyze the imaging properties of the fluorescent probes. In brief, the 10 µM solution of the senicapoc–dye conjugate in PBS was added to adherent A549-3R cells in a glass bottom dish and the set-up was incubated for 10 min at 4 °C in a dark chamber. After careful washing, the cells were analyzed with a fluorescence microscope.
The images were analyzed with respect to size and density of the fluorescent dots. For this purpose, a square with a size of 50 × 50 pixels was randomly placed on the cell images using ImageJ. The intensities of the signals within the square were analyzed to calculate the Full Width at Half Maximum (FWHM) for each selected dot, which represents a measure for the signal size. For the accurate representation of a single KCa3.1 channel, the FWHM should be in the range of five pixels. Signals with a FWHM of ≤5 pixels within the square were regarded as labeled KCa3.1 channels and the number of identified channels was used to determine the density of the ion channels on the cells (Figure S8, Supplementary Materials).

[5] = logD7.4 by micro shake flask method (n-octanol / MOPS buffer pH 7.4, LC-MS); type: physicochemical; conditions: read-out: logD7.4 ± SD (Micro Shake Flask)
Protocol: The logD7.4 values were recorded using the micro shake flask method. In this method, the test compound is distributed between n-octanol and MOPS buffer pH 7.4, and the amount of the compound in the buffer layer is determined by mass spectrometry.
The new fluorescent dyes were designed to increase the polarity and reduce the non-specific labeling of lipophilic membranes of cells. Moreover, a higher polarity should lead to increased water solubility and thus improved handling of the dyes. The logD7.4 value was recorded as a measure of the polarity/lipophilicity using our recently published micro-shake flask method. According to this method, the amount of compound in the aqueous 3-morpholinopropanesulfonic acid (MOPS) buffer pH 7.4 was determined by LC-MS [31, 32].

[6] = UV-Vis absorption and time-resolved photoluminescence spectroscopy; type: physicochemical; conditions: measured in H2O, c = 10^−5 M, 298 K
Protocol: All solvents used were of spectrometric grade (Uvasol®). UV-visible absorption spectra were measured using a Shimadzu UV–VIS spectrophotometer (UV-3600i). Photoluminescence quantum yields were measured with a Hamamatsu Photonics absolute PL quantum yield measurement system (C9920-02) equipped with a L9799-01 CW Xe light source (150 W), a monochromator, a C7473 photonic multi-channel analyzer, an integrating sphere and employing U6039-05 software, version 3.6.0. (Hamamatsu Photonics, Ltd., Shizuoka, Japan). Steady-state excitation and emission spectra were recorded on a FluoTime 300 spectrometer from PicoQuant equipped with a 300 W ozone-free Xe lamp (200–1100 nm), a 10 W Xe-flash lamp (200–1100 nm, pulse width ca. 1 µs) with repetition rates of 1–300 Hz, a double-grating excitation monochromator (Czerny–Turner type, grating with 1200 lines/mm, blaze wavelength: 300 nm), diode lasers (pulse width < 20 ps) operated by a computer-controlled laser driver PDL-828 “Sepia II” (repetition rate up to 80 MHz, burst mode for slow and weak decays), two emission monochromators (Czerny–Turner, selectable between double-grating blazed at 500 nm with 2.7 nm/mm dispersion and 1200 lines/mm, or single-grating blazed at 1250 nm with 5.4 nm/mm dispersion and 600 lines/mm) with adjustable slit width between 25 μm and 7 mm. Glam–Thompson polarizers for excitation (after the Xe-lamps) and emission (after the sample) were used. Different sample holders (Peltier-cooled mounting unit ranging from −15 to 110 °C or an adjustable front-face sample holder), along with two detectors (namely a PMA Hybrid-07 from PicoQuant with transit time spread FWHM < 50 ps, 200–850 nm, or a H10330C-45-C3 NIR detector with transit time spread FWHM 0.4 ns, 950–1400 nm from Hamamatsu) were used. Steady-state spectra and photoluminescence lifetimes were recorded in TCSPC mode by a PicoHarp 300 (minimum base resolution 4 ps) or in MCS mode by a TimeHarp 260 (where up to several ms can be traced). Emission and excitation spectra were corrected for source intensity (lamp and grating) by standard correction curves. For samples with lifetimes in the ns order, an instrument response function calibration (IRF) was performed using a diluted Ludox® dispersion. Lifetime analysis was performed using the commercial EasyTau 2 software, version 2.3. (PicoQuant, Berlin, Germany). The quality of the fit was assessed by minimizing the reduced chi squared function (χ^2) and visual inspection of the weighted residuals and their autocorrelation.
Fluorescence microscopy was used for the analysis of KCa3.1 channel labeling of cells with fluorescent dyes. Therefore, the photophysical properties of fluorescently labeled senicapoc derivatives 15a, 21a, and 22 were determined. Since the fluorophores are separated from the rest of the molecule by a linker, the photophysical properties could be recorded using azide precursors 6a, 6b, and 7a as well.

KCa3.1 channels = conditions: read-out: IC50 (KCa3.1 channel); cited from earlier work

For `CC1=CC(C)=[N+]2C1=C(c1ccc(OCCOCCn3cc(COc4ccc(C(C(N)=O)(c5ccccc5)c5ccc(F)cc5)cc4)nn3)cc1)c1c(C)cc(C)n1[B-]2(F)F` (stereo not drawn) [9a], the “logD7.4 ± SD (Micro Shake Flask)” value [1] is given as 4.73 ± 0.03, the staining properties [2] is given as “promising staining properties” and the chromatographic logP [3] is given as 5.4.
In the case of `CO[B-]1(F)n2c(C)cc(C)c2C(c2ccc(OCCOCCn3cc(COc4ccc(C(C(N)=O)(c5ccccc5)c5ccc(F)cc5)cc4)nn3)cc2)=C2C(C)=CC(C)=[N+]21` (stereo not drawn) [10a], the “logD7.4 ± SD (Micro Shake Flask)” value [1] is given as 4.60 ± 0.23, the staining properties [2] is given as “promising staining properties” and the chromatographic logP [3] is given as 4.4.
With `NC(=O)C(c1ccccc1)(c1ccc(F)cc1)c1ccc(OCCOCCNC(=S)Nc2ccc3c(c2)C(=O)OC32c3ccc(O)cc3Oc3cc(O)ccc32)cc1` (stereo not drawn) [21a, 2-[4-(2-{2-[3-(3′,6′-Dihydroxy-3-oxo-3H-spiro[[2]benzofuran-1,9′-xanthen]-5-yl)thioureido]ethoxy}ethoxy)phenyl]-2-(4-fluorophenyl)-2-phenylacetamide] the “staining pattern of fixed A549-3R tumor cells” value [4] was “A weak green fluorescence of the membrane and an intense staining of the nucleus”, the logD [5] was 1.69 ± 0.04 and the “Absorption λmax” value [6] was 496 nm. For the same compound, the “Emission λmax” value [6] was 521 nm, the “Stokes Shift” value [6] was 25 nm and the “ΦF absolute quantum yield” value [6] was 0.32 ± 0.02. It also gave a τ photoluminescence lifetime [6] of 4.21 ± 0.02 ns and a chromatographic logP ([3]; HPLC at pH 6.0) of 1.5.
For `NC(=O)C(c1ccccc1)(c1ccc(F)cc1)c1ccc(F)cc1` [senicapoc], the IC50 (KCa3.1 channels) is given as 11 nM.
